The text below walks through data of ChEMBL document CHEMBL1135183, “Design and synthesis of C-8 linked pyrrolobenzodiazepine-naphthalimide hybrids as anti-tumour agents” (2002).

By LC50 is commonly meant the concentration that kills 50% of the test population. A high value points to a less lethal substance.

Holding throughout (format): functional
Assay [1] has as its system Panel prostate (Carcinoma cell lines). Nature of the assay: Concentration of compound causing 50% lethality in Prostate cell lines was determined. Conditions: Homo sapiens, read-out: Log LC50 (the source's name) (converted).
Assay [2] relates to Panel colon (Carcinoma cell lines). Nature of the assay: Concentration of compound causing 50% lethality in Colon cell lines was determined. The settings on record: Homo sapiens.
Assay [3] concerns Panel renal (Carcinoma cell lines). Nature of the assay: Concentration of compound causing 50% lethality in Renal cell lines was determined. The settings on record: Homo sapiens.
For a further assay, the system named is NSCLC. Nature of the assay: Concentration of compound causing 50% lethality in Non-small-cell lung cell lines was determined. The settings on record: Homo sapiens, read-out: Log LC50 (the source's name) (converted).
Assay [4] deals with Panel CNS (Carcinoma cell lines). Nature of the assay: Concentration of compound causing 50% lethality in CNS cell lines was determined. Conditions: Homo sapiens, read-out: Log LC50 (the source's name) (converted).
Assay [5] concerns Panel melanoma (Carcinoma cell lines). Nature of the assay: Concentration of compound causing 50% lethality in Melanoma cell lines was determined. Conditions: Homo sapiens, read-out: Log LC50 (the source's name) (converted).
Assay [6] concerns Panel breast (Carcinoma cell lines). Nature of the assay: Concentration of compound causing 50% lethality in Breast cell lines was determined. Conditions: Homo sapiens, read-out: Log LC50 (the source's name) (converted).
The subject of assay [7] is Panel ovarian (Carcinoma cell lines). Nature of the assay: Concentration of compound causing 50% lethality in Ovarian cell lines was determined. Conditions: Homo sapiens, read-out: Log LC50 (the source's name) (converted).
The next assay has as its system leukaemia cell line. Nature of the assay: Concentration of compound causing 50% lethality in Leukemia cell lines was determined. The settings on record: Homo sapiens, read-out: Log LC50 (the source's name) (converted).

The structures appear in SMILES notation. A value given as a limit tells only on which side of the number the result lay.

In the case of `COc1cc2c(cc1OCCCCCN1C(=O)c3cccc4cccc(c34)C1=O)N=C[C@@H]1CCCN1C2=O`, the CC50 in [1] is 61.7 µM; with NSCLC, 69.2 µM; in [4], 72.4 µM; in assay [5], 58.9 µM; in [6], 60.3 µM; in [7] it was 81.3 µM. Further, the CC50 in the assay with leukaemia cell line was 72.4 µM. This compound also showed a 50% lethal concentration (LC50) in assay [2] of 45.7 µM. The compound also gave an LC50 (concentration causing 50% cell lethality) in assay [3] of 30.9 µM.
Take `COc1cc2c(cc1OCCCCCCCCCCCCCN1C(=O)c3cccc4cccc(c34)C1=O)N=C[C@@H]1CCCN1C2=O`: the CC50 was 93.3 µM in assay [1]; more than 100 µM with NSCLC; 77.6 µM in assay [4]; 81.3 µM in assay [5]; 95.5 µM in [6]; 85.1 µM in assay [7]. Besides, the CC50 in the assay with leukaemia cell line was 77.6 µM. This compound also had an LC50 in assay [2] of 83.2 µM. For the same compound, the LC50 (concentration causing 50% cell lethality) in assay [3] is 95.5 µM.
For the compound `COc1cc2c(cc1OCCCN1C(=O)c3cccc4cccc(c34)C1=O)N=C[C@@H]1CCCN1C2=O`, the CC50 in [1] was more than 100 µM; in the assay with NSCLC it was 89.1 µM; in assay [4], more than 100 µM; in assay [5], 97.7 µM; in assay [6], more than 100 µM; in assay [7] it was 97.7 µM. In the assay on leukaemia cell line, the CC50 is 77.6 µM. In addition, the LC50 in assay [2] is 97.7 µM. This compound also gave an LC50 (concentration causing 50% cell lethality) in [3] of 91.2 µM.
Consider `COc1cc2c(cc1OCCCCCCCCCCCCCCCCCN1C(=O)c3cccc4cccc(c34)C1=O)N=C[C@@H]1CCCN1C2=O`, for which the CC50 was 66.1 µM in assay [1]; 83.2 µM with NSCLC; 51.3 µM in assay [4]; 64.6 µM in assay [5]; 85.1 µM in [6]; 77.6 µM in [7]. Further, the CC50 with leukaemia cell line was 61.7 µM. Also, the 50% lethal concentration (LC50) in assay [2] was 75.9 µM. The compound also had an LC50 (concentration causing 50% cell lethality) in assay [3] of 81.3 µM.
Turning to `COc1cc2c(cc1OCCCCCCCN1C(=O)c3cccc4cccc(c34)C1=O)N=C[C@@H]1CCCN1C2=O`, the CC50 is more than 100 µM in assay [1]; 45.7 µM with NSCLC; more than 100 µM in [4]; 37.2 µM in [5]; 43.7 µM in assay [6]; 87.1 µM in assay [7]. For the same compound, the CC50 with leukaemia cell line is more than 100 µM. The compound also showed a 50% lethal concentration (LC50) in assay [2] of 38.9 µM. Moreover, the LC50 (concentration causing 50% cell lethality) in assay [3] was 93.3 µM.
